SMILES strings stand for the structures. “And” between values parts separate entries of the source, which are not always exact repeats. Equal values may be shown once. Read-outs that look alike come from different tables or passages of the source.

The text below walks through data of patent publication US6248309A, “Gums containing antimicrobial agents” (priority 1999, dated 2001).

Data set [1] relates to Porphyromonas gingivalis (PG). Briefly: MIC of agents alone, in pairs and in three-agent combination (Example 2). The class given is cell-based, Porphyromonas gingivalis ATCC 33277. The following applies: for MIC: Porphyromonas gingivalis, read-out: MIC, individual agent alone. The source says: (§1) In addition, the example describes how the MIC of antimicrobial agents in the combinations are reduced compared to the MIC of those antimicrobial agents alone and the MIC of those agents in various pairings. Numerous combinations of the antimicrobial agents described herein were combined to form combinations comprising three antimicrobial agents or triplets. Each of the formed triplets included either cedarwood oil or berberine hydrochloride.
(§2) The protocol used was a variation of the procedure described above in Example 1. The assay was carried out in the two-dimensional array of a 96-well plate. In order to evaluate three agents, two of the agents were paired against the third agent. For example, varying concentrations of antimicrobial agent A plus antimicrobial agent B versus varying concentrations of antimicrobial agent C were evaluated on one 96-well plate. The procedure was repeated with the other two possible pairings, i.e., A+C with B, and B+C with A. Accordingly, each triplet required three assays in order to assess each of the three possible pairings.
(§3) The bacterial innoculum was prepared as described in Example 1.
(§4) A sterile polystyrene 96-well plate was used to dilute the antimicrobial agents A, B and C. Using aseptic technique, 100 microliters of distilled water was placed in each test well. The dilution scheme was separated into two parts. First, the dilution of the combined agents A and B and then second, the dilution of agent C. A dilution of agents A and B was accomplished by placing 50 microliters of stock solution for agent A in the first well of each column. Next, 50 microliters of stock solution for agent B was added to each of the first wells of each column. Accordingly, the first well of each column included 50 microliters of stock solution for agent A and 50 microliters of stock solution for agent B. 100 microliters from the first row in each column was then transferred to the next well in the column and so on down the column. Each transfer was a one-half dilution of the preceding concentration.
(§5) The dilution of antimicrobial agent C was accomplished by adding 100 microliters of agent C stock solution to the first well of each row. 100 microliters from the first well in each row was then transferred to the next well and so on across the row of test wells. Each transfer was a one-half dilution of the preceding concentration. FIG. 1 is a schematic illustration of the concentrations of antimicrobial agents A, B and C derived from the dilution scheme described above. […] The concentration of agent C decreases across a row from left to right. […]
(§6) The 96-well plate was then incubated under conditions that varied by microorganism. […] The plate was then read for microbial growth with a spectrophotometer by optical density. […]

The subject of data set [2] is Streptococcus mutans (SM). The description is as above. As to conditions: agent used alone; for MIC: Streptococcus mutans. It counts as cell-based, Streptococcus mutans ATCC 25175.
Description: as §1, §2, §3, §4, §5, §6

For data set [3], the system named is Actinomyces viscosus (AV). Described as above. It counts as cell-based, Actinomyces viscosus ATCC 19246. The following applies: agent used alone; for MIC: Actinomyces viscosus.
Description: as §1, §2, §3, §4, §5, §6

Data set [4] deals with Streptococcus sanguis (SS). The data set is described as above. The following applies: agent used alone; for MIC, individual agent alone: SS. It counts as cell-based, Streptococcus sanguis ATCC 49295.
Description: as §1, §2, §3
A sterile polystyrene 96-well plate was used to dilute the antimicrobial agents A, B and C. Using aseptic technique, 100 microliters of distilled water was placed in each test well. The dilution scheme was separated into two parts. First, the dilution of the combined agents A and B and then second, the dilution of agent C. A dilution of agents A and B was accomplished by placing 50 microliters of stock solution for agent A in the first well of each column. Next, 50 microliters of stock solution for agent B was added to each of the first wells of each column. […]
as §6

In data set [5] the test system is Fusobacterium nucleatum (FN). The description is as above. The class given is cell-based, Fusobacterium nucleatum ATCC 10933. The following applies: for MIC: Fusobacterium nucleatum, read-out: MIC, individual agent alone.
Description: as §1, §2, §3, §4, §5, §6

The subject of data set [6] is Campylobacter rectus (CR). The description is as above. The class given is cell-based. As to conditions: read-out: MIC, individual agent alone.
Description: as §1, §2, §3
A sterile polystyrene 96-well plate was used to dilute the antimicrobial agents A, B and C. […]
as §6

In data set [7] the test system is Porphyromonas gingivalis. The experiment in a line: MIC of each agent used in Example 5. The class given is cell-based. As to conditions: read-out: MIC relative to Porphyromonas gingivalis used in Example 5. How it is done:
The MIC Range was determined against a standard panel of five organisms that included Actinomyces viscosus, Fusobacterium nucleatum, Porphyromonas gingivalis, Streptococcus mutans, and Stretococcus sanguis. The starting dilution was 0.1 percent in methanol. The MIC used in this Example 5 was the MIC for each agent relative to Porphyromonas gingivalis.

The format of data set [8] is in vivo, human volunteers. How it is done:
The saliva samples were refrigerated until analysis.
To either 2.7 grams unchewed gum sample or the remaining bolus of chewed gum, was added 3.0 millileters of internal standard (Hesperetin) in methanol, 6.0 milliliters hexane and 3.0 milliliters distilled water. Samples were homogenized using a Polytron Homogenizer model PT10/35 from Brinkmann Instruments, fitted with a PTA10TS generator for at least 30 seconds on ice, or until no lumps of non-dispersed gum were visible in the sample. Samples were then centrifuged in a Dynac Tabletop Centrifuge at top speed for ten minutes. The lower, amber, aqueous/methanol layer were then filtered through 25 millimeter, 0.45 micrometer nylon Acrodisc syringe filters from Gelman into 4 milliliter autosampler vials and tightly capped with polytetrafluorothylene lined septum in open-top screw caps. These samples were then analyzed using high pressure liquid chromatography for glabridin and/or glycyrrhizic and 18β-glycyrrhetinic acid, and were quantitated against a 4-point linear curve prepared by spiking approximately 2.7 grams unchewed samples of Wrigley Extra Sugarfree Peppermint gum with known levels of purified glabridin, glycyrrhizic acid monoammonium salt and 18β-glycyrrhetinicacid.
For the analysis of the gum bolus, both chewed and unchewed, a Polytron Homogenizer, described above was used. The gum sample was placed in a heavy wall glass tube. Internal standard ([…]) ethyl acetate ([…]) and water ([…]) were added. The sample was homogenized for approximately 30 seconds, or until no particles could be seen. The tubes were then centrifuged for 10 minutes on a clinical centrifuge at maximum speed. The supernatant was injected directly onto the gas chromatograph. The oven program was modified to allow resolution of ROF1 components from those of the peppermint flavoring. The gas chromatograph was calibrated using a three point standard curve to quantify the following components: menthol (flavor); geraniol (oil geraniol); cedrene, thujopsene (RC1); pinene, cineol, camphor, bornyl acetate (ROF1). The initial temperature was decreased from 140° C. to 100° C. The temperature gradient was changed from 10° C./minute to 4° C./minute. The split ratio was 50:1, and injection volume was 1 μL as per the method. A cleanup gradient was run every fifth sample as described previously.
A recovery study was performed in triplicate using blank Wrigley's Peppermint Gum (chewed and unchewed) spiked with stand and solution. Recovery was calculated relative to a direct standard consisting of spike solution without sample matrix.

The conditions of data set [9]: for Above MIC in Saliva (Y/N): concentration in saliva at any time above MIC relative to Porphyromonas gingivalis; for Rate of release from gum: in words.
Description: (§7) Ten volunteers chewed 2.7 grams samples of each gum formulation and provided saliva samples at intervals and the gum bolus at the end of the 25 minute chewing period. High pressure liquid chromatography and gas chromatography were used to analyze the gum bolus and saliva non-volatile and volatile components, respectively.
(§8) Saliva samples were collected from each of the individuals prior to chewing 2.7 grams of gum, and at 1.0, 2.5, 5.0, 10.0, and 25.0 minutes while chewing the gum. The saliva samples were refrigerated until analysis. The gum bolus that remained after 25 minutes was saved and extracted immediately or stored refrigerated until extraction for analysis.
(§9) Samples were Vortex-mixed in Multi-tube vortex mixer for one minute and then centrifuged at top speed in clinical centrifuge for two minutes. Supernatants were carefully transferred to 1 milliliter glass shell vials and capped. Analysis was carried out either by isocratic elution for glabridin-only samples, or gradient elution for the samples containing the glycyrrhizic and 18β-glycyrrhetinic acids using high pressure liquid chromatography. Glabridin concentrations were converted to GLY concentrations by taking the weight percent glabridin in GLY to be 2.74 percent.
(§10) The calibration curve was prepared using spiked blank saliva.
(§11) For saliva, the essential oils of menthol, cedarwood oil, geraniol and Rosmarinus officianalis were determined by capillary gas chromatography. The split ratio was 25:1. The injection volume was 2 μL. Four hundred μL of saliva was extracted from the 1 milliliter of ethyl acetate containing an internal standard (hexadecane) in 1.5 milliliter Eppendorf tubes. After centrifugation, the organic layer was injected directly into the Hewlett-Packard 6890 gas chromatograph. […] For this reason, only the samples from 0 to 10 minutes were analyzed. A cleanup gradient was run from 190 to 300° C. every fifth sample to remove less volatile interferences from the column.
Data set [10] is described as follows: clinical. As to conditions: human, in vivo.
Description: as §7, §8, §9, §10, §11

For `COc1ccc2cc3[n+](cc2c1OC)CCc1cc2c(cc1-3)OCO2` [BX1, 5,6-dihydro-9,10-dimethoxybenzo[g]-1,3-benzodioxolo [5,6-a] quinolizinium], the “MIC, individual agent alone” value is 15.6 µg/mL in [1] (PG, agent used alone); 31.3 µg/mL and 62.5 µg/mL in [2] (SM); 62.5 µg/mL in data set [3] (AV); 62.5 µg/mL in data set [4]; 62.5 µg/mL in data set [5] (FN, agent used alone). For the same molecule, the minimum inhibitory concentration (MIC) – broadly, the lowest concentration that inhibits growth of the organism – in data set [1] was determined as 15.6 µg/mL; in [2] (read-out: MIC, individual agent alone, SM), 31.3 µg/mL; in data set [3] (read-out: MIC, individual agent alone, AV), 31.3 µg/mL; in [4] (Streptococcus, read-out: MIC, individual agent alone, SS), 31.3 µg/mL; in data set [5], 62.5 µg/mL; in [6], 125 µg/mL.
As to `CC(C)=CCC/C(C)=C/CO` [GRA1, trans-3,7-dimethyl-2,6-octadien-1-ol], the “MIC, individual agent alone” value in data set [1] (PG, agent used alone) was 62.5 µg/mL; in data set [2] (SM), 125 µg/mL; in data set [3] (AV), 62.5 µg/mL and 125 µg/mL; in data set [4], 125 µg/mL and 62.5 µg/mL and 250 µg/mL; in data set [5] (FN, agent used alone) it was 62.5 µg/mL and 125 µg/mL. Besides, the MIC in data set [1] (PG, agent used alone) was 62.5 µg/mL; in [2] (SM, read-out: MIC, individual agent alone), 125 µg/mL; in [7] (starting dilution 0.1 percent in methanol, MIC defined in micrograms per milliliter), 7.8 µg/mL; in [3] (AV, read-out: MIC, individual agent alone) it was 125 µg/mL; in data set [5] (FN, agent used alone), 62.5 µg/mL; in [6] (CR, agent used alone), 250 µg/mL. In addition, in data set [8] (in vivo), the “Release from Chewed Gum Bolus after 25 min” value is listed as 34%. The “Above MIC in Saliva (Y/N)” value in data set [9] is “No”. Moreover, in data set [9] (human, in vivo), the “Time maintaining a presence in the oral cavity” value is given as “about 25 minutes”. The “Rate of release from gum” value is “released more slowly and over a longer period of time” in data set [9] (listed as GRA); “released from a gum base less quickly and over a longer period of time” in data set [9] (listed as geraniol). Besides, the concentration at 1 min in data set [10] came out at 6000 ng/mL. The same molecule returned a concentration at 2.5 min in [10] of 6000 ng/mL. This molecule gave a concentration at 5 min in data set [10] of 7000 ng/mL. In [10], this molecule yielded a concentration at 10 min of 5000 ng/mL.
Regarding `CC1CCC(C(C)C)C(O)C1` (stereo not drawn) [Menthol], the minimal inhibitory concentration (MIC) in data set [7] amounted to 125 µg/mL. The “Release from Chewed Gum Bolus after 25 min” value in data set [8] (2.7 g peppermint gum chewed 25 min, ten volunteers) is recorded as 50%. Also, in [9] (25 minutes, GLY formulations 1,3-6, RC1 5,6, GRA 4-6, GA, GR #6, menthol 1-6), the “Concentration of Antimicrobial Agent in Saliva” value is recorded as “below detection limits”. Also, the “Above MIC in Saliva (Y/N)” value in data set [9] is given as “No”. In data set [10], the concentration at 1 min stood at 25000 ng/mL, the concentration at 2.5 min stood at 22000 ng/mL, the concentration at 5 min worked out at 24000 ng/mL and the concentration at 10 min turned out to be 24000 ng/mL.
